Measured values: BindingDB's records for doi:10.1021/ml5002757 (Therachem Research Medilab (India), 2014)

Target: Free fatty acid receptor 1 (Homo sapiens, UniProt O14842)
Experiment: Modulation activity at human GPR40 expressed in HEK293 cells by IP-1 detection based HTRF assay

Sequence of Free fatty acid receptor 1 (O14842 whole entry): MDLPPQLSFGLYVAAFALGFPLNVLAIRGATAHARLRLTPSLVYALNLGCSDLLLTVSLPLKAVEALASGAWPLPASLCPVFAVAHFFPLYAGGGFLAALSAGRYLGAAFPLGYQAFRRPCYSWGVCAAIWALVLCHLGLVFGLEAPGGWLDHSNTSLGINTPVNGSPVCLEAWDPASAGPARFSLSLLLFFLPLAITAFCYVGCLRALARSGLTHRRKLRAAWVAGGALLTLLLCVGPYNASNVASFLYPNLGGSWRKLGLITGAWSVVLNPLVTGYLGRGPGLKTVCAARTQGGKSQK

Cc1ccccc1Oc1ccc(N2N=C(C#N)CC2CC(=O)O)cc1 (stereo unspecified)
EC50: 560 nM
